What was measured:
[1] = system: C. albicans ATCC 10231; test: Biofilm formation (crystal violet); format: cell-based, Candida albicans; settings: 2×MIC to ¼×MIC (128-16 μg/mL), 48 h
Method: The effect of compound 1 on biofilm formation of C. albicans ATCC 10231 was evaluated through quantification of total biomass by crystal violet staining. […] A control with appropriate concentration of DMSO, as well as a negative control (RPMI alone), were included. Sterile 96-well flat-bottomed untreated polystyrene microtiter plates were used. After a 48 h incubation at 35° C., the biofilms were stained with 1% (v/v) crystal violet for 5 min. The stain was solubilized with 33% (v/v) acetic acid and the biofilm biomass was quantified by measuring the absorbance of each sample at 570 nm in a microplate reader (Thermo Scientific Multiskan® EX, Thermo Fisher Scientific, Waltham, MA, USA). The background absorbance (RPMI without inoculum) was subtracted, and the data are presented as percentage of control. Three independent assays were performed in triplicate for each experimental condition.

[2] = system: E. coli ATCC 25922; test: Enzymatic/metabolic activity, MTT assay; format: cell-based, Escherichia coli
Method: To determine whether compound 1 could also affect enzymatic activity, 2-(4,5-dimethyl-2-thiazolyl)-3,5-diphenyl-2H-tetrazolium bromide (MTT) assay was performed. This assay can also be used as an indirect measure of cellular viability, as tetrazolium salts are reduced to purple formazan by metabolically active cells. E. coli ATCC 25922 cells were treated with compound 1 and COL and AMP were used as controls, as described above. Measurements were made at 0, 1, and 18 h.
Enzymatic activity was evaluated by the MTT assay, as previously described, with some modifications. Cell suspensions of E. coli ATCC 25922 were prepared as described above, as well as test conditions and controls. At each time point (0, 1, and 18 h), 500 μL aliquots were collected, centrifuged at 3500 rpm for 10 min, the supernatant was removed, and 300 μL of MTT solution (0.5 mg/mL in CAMHB, at 36 degrees C.) (Thiazolyl Blue Tetrazolium Bromide, Alfa Aesar, Ward Hill, MA, USA) were added. After a 30 min incubation at 36° C., the insoluble formazan product resulting from the conversion of MTT by metabolically active cells was solubilized with 300 μL of DMSO. 100 μL of each sample were transferred in duplicate to the wells of a microtiter plate and the extent of the reduction of MTT to formazan was quantified by measuring the absorbance at 570 nm (Thermo Scientific Multiskan® EX, Thermo Fisher Scientific, Waltham, MA, USA). Three independent assays were performed in duplicate, and results are expressed as a percentage of untreated control.

[3] = system: E. faecalis B3/101; test: Checkerboard synergy with VAN; format: cell-based, Enterococcus faecalis
Method: (§1) The combined effect of compound 1 and CTX for E. coli SA/2, VAN for E. faecalis B3/101, COL for E. coli 2252, erythromycin for E. coli ATCC 25922, and OXA for S. aureus 66/1 was evaluated by the checkerboard method. […] The interaction between compound 1 and erythromycin was assessed for E. coli ATCC 25922. Gram-negative bacteria are intrinsically resistant to erythromycin, a macrolide that inhibits protein synthesis, and cannot penetrate the outer membrane of Gram-negative bacteria, which is impermeable to hydrophobic antibiotics. Ascertain ceragenins have been previously described to be able to enhance the efficacy of such antibiotics, this possibility was investigated for compound 1 and a FICI of 0.6 was obtained.

[4] = system: P. aeruginosa ATCC 27853; test: Bacterial biofilm formation inhibition (crystal violet); format: cell-based, Pseudomonas aeruginosa; settings: 2×MIC and MIC, 24 h
Method: In an embodiment, the antibiofilm activity of compound 1 was performed as follows. Given its bactericidal effect, the impact of compound 1 on the biofilm formation of reference strains was studied.
The effect of compound 1 on bacterial biofilm formation was evaluated through quantification of total biomass, using the crystal violet method, as previously described ([FIG. 6]). […] A control with an appropriate concentration of DMSO, as well as a negative control (TSB alone) was included. Sterile 96-well flat-bottomed untreated polystyrene microtiter plates were used. After a 24 h incubation at 37 degrees C., the biofilms were heat-fixed for 1 h at 60 degrees C. and stained with 0.5% (v/v) crystal violet (Quimica Clinica Aplicada, Amposta, Spain) for 5 min. The stain was resolubilized with 33% (v/v) acetic acid (Acetic acid 100%, AppliChem, Darmstadt, Germany) and the biofilm biomass was quantified by measuring the absorbance of each sample at 570 nm in a microplate reader (Thermo Scientific Multiskan® EX, Thermo Fisher Scientific, Waltham, MA, USA). The background absorbance (TSB or TSB+1% glucose without inoculum) was subtracted from the absorbance of each sample and the data are presented as a percentage of control. Three independent assays were performed for reference strains, with triplicates for each experimental condition.

[5] = system: E. coli 2252; test: Checkerboard synergy with COL; format: cell-based, Escherichia coli
Method: as §1

[6] = system: E. coli ATCC 25922; test: Checkerboard synergy with erythromycin; format: cell-based, Escherichia coli; settings: E. coli ATCC 25922
Method: as §1

[7] = system: E. coli SA/2 (ESBL); test: Kirby-Bauer disk diffusion; format: cell-based; settings: 15 μg per disk
Method: (§2) An initial screening of the antibacterial activity of the compounds was performed by the Kirby-Bauer disk diffusion method, as recommended by the Clinical and Laboratory Standards Institute (CLSI). Briefly, sterile 6 mm blank paper disks (Oxoid, Basingstoke, England) impregnated with 15 μg of each compound were placed on inoculated MH agar plates. A blank disk with dimethylsulfoxide (DMSO) was used as a negative control. MH inoculated plates were incubated for 18-20 h at 37 degrees C. At the end of incubation, the inhibition halos where measured. The MIC was used to determine the antibacterial activity of each compound, in accordance with the recommendations of the CLSI. Two-fold serial dilutions of the compounds were prepared in Mueller-Hinton Broth 2 (MHB2—Sigma-Aldrich, St. Louis, MO, USA) within the concentration range of 0.062-64 μg/mL. CTX ranging between 0.031-16 μg/mL was used as a control. Sterility and growth controls were included in each assay. Purity checks and colony counts of the inoculum suspensions were also performed in order to ensure that the final inoculum density closely approximates the intended number (5×10^5 CFU/mL). The MIC was determined as the lowest concentration of compound that inhibited growth of the bacteria. The MBC was assessed by spreading 10 μL of culture collected from wells showing no visible growth on MH agar plates. […] These assays were performed in duplicate.

[8] = system: Pseudomonas aeruginosa ATCC 27853; test: Kirby-Bauer disk diffusion; format: cell-based; settings: 15 μg per disk
Method: as §2

[9] = system: Escherichia coli ATCC 25922; test: Kirby-Bauer disk diffusion; format: cell-based; settings: 15 μg per disk
Method: as §2

[10] = system: Staphylococcus aureus ATCC 29213; test: Kirby-Bauer disk diffusion; format: cell-based; settings: 15 μg per disk
Method: as §2

For `C[C@H](CCC(=O)NCCN)[C@H]1CC[C@H]2[C@@H]3CC[C@@H]4C[C@H](O)CC[C@]4(C)[C@H]3C[C@H](O)[C@]12C` [Compound 1, (R)—N-(2-aminoethyl)-4-((3R,5R,8R,9S,10S,12S,13R,14S,17R)-3,12-dihydroxy-10,13-dimethylhexadecahydro-1H-cyclopenta[a]phenanthren-17-yl) pentanamida], the “biofilm formation (in words)” value [1] was “significant inhibition of biofilm formation”, the “metabolic activity (MTT) vs untreated control” value ([2]; 32 μg/mL, after 1 and 18 h) was “decrease in enzymatic activity” and the “metabolic activity (MTT) vs untreated control” value ([2]; 64 μg/mL, 0, 1, 18 h) was “significantly reduced at all time points”. For the same compound, the “combined effect with VAN (in words)” value [3] was “No synergistic interactions”, the “biofilm formation (in words)” value [4] was “significantly inhibited” and the “combined effect with COL (in words)” value ([5]; checkerboard, E. coli 2252) was “No synergistic interactions”. The “fractional inhibitory concentration index (FICI)” value ([5]; with COL, E. coli 2252 (mcr-1)) was 0.6, the “combined effect with erythromycin (in words)” value ([6]; checkerboard) was “No synergistic interactions” and the “fractional inhibitory concentration index (FICI)” value ([6]; with erythromycin) was 0.6. The Disk diffusion [7] was 8 mm, the Disk diffusion [8] was 8 mm and the Disk diffusion [9] was 8 mm. It also gave a Disk diffusion [10] of 13 mm.

Source: patent US20250002450A1, “CATIONIC STEROID COMPOUNDS, METHOD OF OBTAINING THEREOF, FORMULATIONS COMPRISING THEREOF AND THEIR USES” (UNIVERSIDADE DO PORTO, priority 2021, published 2025)
